Tests used:
[1] = Trans-cyclooctene stability in vivo (blood samples reacted with excess ^111In-tetrazine 28); parameters: species or system mice; details: TCO bound to CC49, tumor-free mice
Procedure: Tumor-free mice (n=3 per group) were injected intravenously with CC49-PEG10-TCO-O major (CC49-23a; 8.4 TCO per CC49; 300 μg/100 μL per mouse), CC49-PEG10-TCO-C minor (CC49-27b; 3.3 TCO per CC49, […]), and CC49-TCO-O major without spacer (CC49-20a; 8.0 TCO per CC49, 300 μg/100 μL per mouse). At selected time points (from 1 hour up to 4 days post injection) blood samples were withdrawn from the vena saphena and collected in vials containing heparin. The blood samples were weighed and an excess ^111In-tetrazine 28 was added. After 20 min incubation at 37° C., blood aliquots were 10-fold diluted with PBS and analyzed by SDS-PAGE. The cycloaddition yields were determined from the radioactivity in the bands corresponding to the mAb and the counts were quantified with AIDA Image Analyzer software. The amount of mAb present in blood at each time point (% ID/g blood) was evaluated in three separate groups of mice (n=3), which were injected with the corresponding ^125I—CC49-TCO (300 μg/100 μL per mouse, ca. 0.2 MBq). The data, corrected for mAb clearance, were normalized to 100% ID TCO at t=0.
This experiment was carried out to expand the series of in vivo TCO stability measurements described in Example 6. […] In the new experiment, following the same procedure, we tested the in vivo stability of a CC49-bound TCO minor without PEG spacer (20b, 6.9 equivalents bound).

[2] = test system: LS174T tumor model; assay: Biodistribution experiments in tumor bearing mice pretargeted with CC49-TCO constructs; format: in vivo, Nude female Balb/C mice; details: 3 h after injection
Procedure: (§1) LS174T tumor model. The human colon cancer cell line LS174T was obtained from the ATCC and maintained in Eagle's minimal essential medium (Sigma) supplemented with 10% heat inactivated fetal calf serum (Gibco), penicillin (100 U/mL), streptomycin (100 μg/mL) and 2 mM Glutamax. Nude female Balb/C mice (20-25 g body weight, Charles River Laboratories) were inoculated subcutaneously with 5×10^6 cells in 100 μL sterile PBS.
Dual isotope biodistribution experiments were performed by injecting tumor bearing mice (n=3) intravenously with ^125I-labeled CC49-TCO constructs with and without PEG10 spacer (100 μg/100 μL per mouse, ca. […] 0.8 MBq). Three hours after tetrazine administration, the animals were anesthetized with isoflurane and sacrificed by cervical dislocation. Blood was withdrawn by heart puncture and organs and tissues of interest were harvested, blotted dry and weighed. The radioactivity of the samples was measured in a γ-counter along with standards to determine the % ID/gram. The energy windows were set to 10-80 keV and 100-510 keV for ^125I and ^111In, respectively.

[3] = test system: LS174T tumor model; assay: SPECT/CT imaging of tumor-bearing mice; format: in vivo
Procedure: as §1
Tumor-bearing mice were injected with ^111In-tetrazine 28 (21 μg/75 μL per mouse, 20-50 MBq) 3 or 4 days after receiving 100 μg of a CC49-TCO construct without PEG10 spacer. Approximately 1 h later, the mice were anesthetized and positioned on an animal bed equipped with a nose cone for anesthesia and a sensor for respiratory monitoring. Single photon emission computed tomography (SPECT) was performed 2 h post tetrazine injection with a four-headed multi-pinhole small animal SPECT/CT imaging system (NanoSPECT, Bioscan Inc.). The SPECT acquisition (1 h total) was performed with 1.4 mm diameter pinholes and a 120-140 sec acquisition time per view (24 projections). The energy window for ^111In was set at 245 keV±15% and 171 keV±20%. Two-to-four days after the first scan, the mice were euthanized by anesthesia overdose and a second SPECT/CT scan was acquired overnight. Prior to each SPECT session a CT scan (2 sec per projection, 360 projections) was performed to obtain anatomical information on radioactivity distribution. After the acquisition, the data was reconstructed iteratively with the manufacturer's software (InVivoScope 1.39, patch 1). Regions of interest (ROIs) were drawn manually in triplicate for tumor, liver, kidney and thigh muscle. A phantom filled with a known amount of ^111In was used to calibrate the scanner for tissue radioactivity quantification. The image of three mice injected with CC49-TCO-O minor (CC49-20b), CC49-TCO-O major (CC49-20a) and CC49-TCO-C minor (CC49-14b) on a representative time scale are depicted in FIG. 13 A-C, respectively.
FIG. 13: (left) SPECT/CT projections of live mice 2 h after injection of ^111In-tetrazine 28 (21 μg/75 μL per mouse, ca. 40 MBq), 3-4 days after the administration of (A) CC49-TCO-O minor (CC49-20b), (B) CC49-TCO-O major (CC49-20a) or (C) CC49-TCO-C minor (CC49-14b) (100 μg/100 μL per mouse). (Right), post mortem SPECT/CT scans of the same mice 2-4 days after the first imaging session. White arrows indicate tumors.

[4] = test system: LS174T tumor model; assay: Tumor targeting of CC49-TCO (20b) constructs; format: in vivo, Nude female Balb/C mice; details: 3 h post-injection
Procedure: as §1
[…] The mice that received ^125I—CC49 were sacrificed 4 days post mAb injection. The mice that received ^125I—CC49-TCO 20b were injected with ^111In-DOTA-tetrazine 28 at 72 h post-mAb injection (25 eq. with respect to mAb, ca. 0.8 MBq) and were sacrificed 3 h after tetrazine injection. At the time of sacrifice, blood was collected by heart puncture and organs and tissues of interest were harvested, blotted dry, weighed and added with 1 mL PBS. The radioactivity in all samples was measured in a gamma-counter (Wizard 3, Perkin Elmer) with a dual-isotope protocol (energy windows set to 10-80 keV and 100-510 keV for ^125I and ^111In, respectively) along with standards to determine the percent injected dose per gram tissue (% ID/g).

[5] = 1 day pretargeting with CC49-14b
[6] = 1 day pretargeting with CC49-20a
[7] = 1 day pretargeting with CC49-20b
[8] = 3 days pretargeting with CC49-14b
[9] = 3 days pretargeting with CC49-20a
[10] = 3 days pretargeting with CC49-20b
[11] = mice pretreated with CC49-TCO(8.5) 72 h before
[12] = mice pretreated with CC49-TCO(12.7) 72 h before
[13] = mice pretreated with CC49-TCO(18.2) 72 h before

## O=C(ON1C(=O)CCC1=O)c1ccc(COC2CC/C=C/CCC2)cc1 (centres unmarked) [20a, (E-major)-2,5-Dioxopyrrolidin-1-yl 4-((cyclooct-4-enyloxy)methyl)benzoate]
[1]
  time stable in vivo: at least 4 days

## O=C([O-])CN1CCN(CC(=O)[O-])CCN(CC(=O)NCCOCCOCCOCCOCCOCCOCCOCCOCCOCCOCCOCCNC(=O)CCCC(=O)Nc2ccc(-c3nnc(-c4ccccn4)nn3)nc2)CCN(CC(=O)[O-])CC1.[111In+3] [^111In-tetrazine 28]
[2]; [5]
  ^111In-tetrazine in Blood: 1.12 ± 0.09 % ID/gram
  ^111In-tetrazine in Bone: 0.27 ± 0.08 % ID/gram
  ^111In-tetrazine in Brain: 0.05 ± 0.01 % ID/gram
  ^111In-tetrazine in Heart: 0.46 ± 0.12 % ID/gram
  ^111In-tetrazine in Kidney: 3.12 ± 0.33 % ID/gram
  ^111In-tetrazine in Liver: 1.17 ± 0.35 % ID/gram
  ^111In-tetrazine in Lung: 0.79 ± 0.24 % ID/gram
  ^111In-tetrazine in Muscle: 0.22 ± 0.07 % ID/gram
  ^111In-tetrazine in Spleen: 0.53 ± 0.14 % ID/gram
  ^111In-tetrazine in Tumor: 2.59 ± 0.35 % ID/gram
[2]; [6]
  ^111In-tetrazine in Blood: 2.39 ± 1.77 % ID/gram
  ^111In-tetrazine in Bone: 0.33 ± 0.16 % ID/gram
  ^111In-tetrazine in Brain: 0.10 ± 0.06 % ID/gram
  ^111In-tetrazine in Heart: 0.84 ± 0.71 % ID/gram
  ^111In-tetrazine in Kidney: 2.84 ± 0.35 % ID/gram
  ^111In-tetrazine in Liver: 2.05 ± 1.03 % ID/gram
  ^111In-tetrazine in Lung: 1.13 ± 0.55 % ID/gram
  ^111In-tetrazine in Muscle: 0.33 ± 0.22 % ID/gram
  ^111In-tetrazine in Spleen: 0.83 ± 0.46 % ID/gram
  ^111In-tetrazine in Tumor: 2.40 ± 0.16 % ID/gram
[2]; [7]
  ^111In-tetrazine in Blood: 1.61 ± 0.45 % ID/gram
  ^111In-tetrazine in Bone: 0.40 ± 0.05 % ID/gram
  ^111In-tetrazine in Brain: 0.07 ± 0.01 % ID/gram
  ^111In-tetrazine in Heart: 0.50 ± 0.04 % ID/gram
  ^111In-tetrazine in Kidney: 3.39 ± 0.84 % ID/gram
  ^111In-tetrazine in Liver: 1.41 ± 0.45 % ID/gram
  ^111In-tetrazine in Lung: 0.97 ± 0.16 % ID/gram
  ^111In-tetrazine in Muscle: 0.24 ± 0.06 % ID/gram
  ^111In-tetrazine in Spleen: 0.65 ± 0.12 % ID/gram
  ^111In-tetrazine in Tumor: 3.42 ± 0.40 % ID/gram
[2]; [8]
  ^111In-tetrazine in Blood: 0.54 ± 0.11 % ID/gram
  ^111In-tetrazine in Bone: 0.20 ± 0.07 % ID/gram
  ^111In-tetrazine in Brain: 0.03 ± 0.01 % ID/gram
  ^111In-tetrazine in Heart: 0.24 ± 0.07 % ID/gram
  ^111In-tetrazine in Kidney: 2.82 ± 0.28 % ID/gram
  ^111In-tetrazine in Liver: 0.84 ± 0.21 % ID/gram
  ^111In-tetrazine in Lung: 0.50 ± 0.11 % ID/gram
  ^111In-tetrazine in Muscle: 0.16 ± 0.04 % ID/gram
  ^111In-tetrazine in Spleen: 0.34 ± 0.09 % ID/gram
  ^111In-tetrazine in Tumor: 2.76 ± 1.36 % ID/gram
[2]; [9]
  ^111In-tetrazine in Blood: 0.79 ± 0.39 % ID/gram
  ^111In-tetrazine in Bone: 0.15 ± 0.00 % ID/gram
  ^111In-tetrazine in Brain: 0.26 ± 0.11 % ID/gram
  ^111In-tetrazine in Heart: 0.30 ± 0.03 % ID/gram
  ^111In-tetrazine in Kidney: 3.16 ± 0.57 % ID/gram
  ^111In-tetrazine in Liver: 0.88 ± 0.13 % ID/gram
  ^111In-tetrazine in Lung: 0.58 ± 0.07 % ID/gram
  ^111In-tetrazine in Muscle: 0.21 ± 0.02 % ID/gram
  ^111In-tetrazine in Spleen: 0.43 ± 0.03 % ID/gram
  ^111In-tetrazine in Tumor: 3.11 ± 0.80 % ID/gram
[2]; [10]
  ^111In-tetrazine in Blood: 0.59 ± 0.10 % ID/gram
  ^111In-tetrazine in Bone: 0.16 ± 0.02 % ID/gram
  ^111In-tetrazine in Brain: 0.03 ± 0.01 % ID/gram
  ^111In-tetrazine in Heart: 0.22 ± 0.03 % ID/gram
  ^111In-tetrazine in Kidney: 2.59 ± 0.24 % ID/gram
  ^111In-tetrazine in Liver: 0.64 ± 0.06 % ID/gram
  ^111In-tetrazine in Lung: 0.46 ± 0.07 % ID/gram
  ^111In-tetrazine in Muscle: 0.18 ± 0.09 % ID/gram
  ^111In-tetrazine in Spleen: 0.35 ± 0.08 % ID/gram
  ^111In-tetrazine in Tumor: 2.56 ± 0.65 % ID/gram
[3]; 3 days after pre-treatment with CC49-TCO-O (both major and minor forms)
  ^111In-tetrazine uptake in tumor (SPECT/CT): high ^111In-tetrazine uptake in tumor
[3]; after the administration of CC49-TCO-C minor, 4 days delay between the two treatments
  radioactivity uptake (SPECT/CT): rather low radioactivity uptake
[3]; mice given CC49-TCO-C minor, 2 days after the early scan
  signal in the tumor at late scan (SPECT/CT): still present
[3]; mice pre-treated with CC49-TCO 0, 72-96 h after ^111In-tetrazine injection
  tumor radioactivity at late scan (SPECT/CT): still highly radioactive
[4]; [11]
  ^111In-tetrazine 28 in Blood: 0.45 ± 0.14 % ID/g
  ^111In-tetrazine 28 in Bone: 0.10 ± 0.03 % ID/g
  ^111In-tetrazine 28 in Brain: 0.02 ± 0.01 % ID/g
  ^111In-tetrazine 28 in Heart: 0.16 ± 0.03 % ID/g
  ^111In-tetrazine 28 in Kidney: 1.64 ± 0.28 % ID/g
  ^111In-tetrazine 28 in Liver: 0.44 ± 0.12 % ID/g
  ^111In-tetrazine 28 in Lung: 0.42 ± 0.06 % ID/g
  ^111In-tetrazine 28 in Muscle: 0.11 ± 0.05 % ID/g
  ^111In-tetrazine 28 in Spleen: 0.25 ± 0.05 % ID/g
  ^111In-tetrazine 28 in Tumor: 3.72 ± 1.45 % ID/g
[4]; [12]
  ^111In-tetrazine 28 in Blood: 0.37 ± 0.28 % ID/g
  ^111In-tetrazine 28 in Bone: 0.08 ± 0.02 % ID/g
  ^111In-tetrazine 28 in Brain: 0.01 ± 0.01 % ID/g
  ^111In-tetrazine 28 in Heart: 0.13 ± 0.05 % ID/g
  ^111In-tetrazine 28 in Kidney: 1.25 ± 0.24 % ID/g
  ^111In-tetrazine 28 in Liver: 0.29 ± 0.12 % ID/g
  ^111In-tetrazine 28 in Lung: 0.34 ± 0.10 % ID/g
  ^111In-tetrazine 28 in Muscle: 0.05 ± 0.00 % ID/g
  ^111In-tetrazine 28 in Spleen: 0.20 ± 0.06 % ID/g
  ^111In-tetrazine 28 in Tumor: 3.36 ± 1.69 % ID/g
[4]; [13]
  ^111In-tetrazine 28 in Blood: 0.12 ± 0.03 % ID/g
  ^111In-tetrazine 28 in Bone: 0.10 ± 0.02 % ID/g
  ^111In-tetrazine 28 in Brain: 0.04 ± 0.05 % ID/g
  ^111In-tetrazine 28 in Heart: 0.09 ± 0.03 % ID/g
  ^111In-tetrazine 28 in Kidney: 2.15 ± 0.17 % ID/g
  ^111In-tetrazine 28 in Liver: 0.26 ± 0.05 % ID/g
  ^111In-tetrazine 28 in Lung: 0.29 ± 0.01 % ID/g
  ^111In-tetrazine 28 in Muscle: 0.29 ± 0.43 % ID/g
  ^111In-tetrazine 28 in Spleen: 0.20 ± 0.02 % ID/g
  ^111In-tetrazine 28 in Tumor: 1.21 ± 0.22 % ID/g
